Reference: US20240018161A1, “MODULATORS OF CYSTIC FIBROSIS TRANSMEMBRANE CONDUCTANCE REGULATOR” (VERTEX PHARMACEUTICALS INCORPORATED, priority 2020, published 2024)
Like-named read-outs stand apart in the source and are kept apart here. Each block holds one compound with its values, some of them ahead of it.

Columns and labels:
[1] = 13-membered ring
[2] = molecular target: T1, CFTR-mediated chloride transport in human intestinal epithelial enteroid cells (Homo sapiens, UniProt P13569); experiment: Membrane potential dye, Enteroid Assay B; assay type: cell-based; conditions: for EC50: read-out: Ent. B EC50
Description: Base medium (ADF+++) consisted of Advanced DMEM/Ham's F12, 2 mM Glutamax, 10 mM HEPES, […] penicillin/streptomycin.
Bath 1 Buffer consisted of 1 mM MgCl2, 160 mM NaCl, 4.5 mM KCl, 10 mM HEPES, 10 mM Glucose, 2 mM CaCl2.
Chloride Free Buffer consisted of 1 mM Magnesium Gluconate, 2 mM Calcium Gluconate, 4.5 mM Potassium Gluconate, 160 mM Sodium Gluconate, 10 mM HEPES, 10 mM Glucose.
Bath1 Dye Solution consisted of Bath 1 Buffer, 0.04% Pluronic F127, 20 μM Methyl Oxonol, 30 μM CaCCinh-A01, 30 μM Chicago Sky Blue.
Chloride Free Dye Solution consisted of Chloride Free Buffer, 0.04% Pluronic F127, 20 μM Methyl Oxonol, 30 μM CaCCinh-A01, 30 μM Chicago Sky Blue.
3. Enteroid Cell Harvesting and Seeding
Cells were recovered in cell recovery solution, collected by centrifugation at 650 rpm for 5 min at 4° C., resuspended in TryPLE and incubated for 5 min at 37° C. Cells were then collected by centrifugation at 650 rpm for 5 min at 4° C. and resuspended in IEMM containing 10 μM ROCK inhibitor (RI).
5. Membrane Potential Dye, Enteroid Assay B
Briefly, cells were washed 5 times in Bath 1 Buffer. Bath 1 Dye Solution was added and the cells were incubated for 25 min at room temperature. Following dye incubation, cells were washed 3 times in Chloride Free Dye Solution. Chloride transport was initiated by addition of Chloride Free Dye Stimulation Solution and the fluorescence signal was read for 15 min.

[3] = molecular target: T1, CFTR-mediated chloride transport in human intestinal epithelial enteroid cells; experiment: Membrane potential dye, Enteroid Assay A; assay type: cell-based; conditions: for EC50: read-out: Ent. A EC50
Procedure, shortened: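 Membrane potential dye (20 μM methyl oxonol, with 30 μM CaCCinh-A01 and 30 μM Chicago Sky Blue) loaded 25 min at room temperature into ROCK-inhibitor-seeded human enteroid cells. Chloride-free stimulation buffer triggered transport, followed by 15 min fluorescence. % Activity relative to 3 μM/3 μM/300 nM triple-combination control.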

[4] = enteroid cells incubated with test compound 18-24 hours, acute 10 μM forskolin and 300 nM N-[2,4-bis(1,1-dimethylethyl)-5-hydroxyphenyl]-1,4-dihydro-4-oxoquinoline-3-carboxamide
[5] = percentage of chloride transport of triple combination control (1 μM (14S)-8-[3-(2-{Dispiro[2.0.2.1]heptan-7-yl}ethoxy)-1H-pyrazol-1-yl]-... trione based)
[6] = percentage of chloride transport of triple combination control (3 μM N-[(6-amino-2-pyridyl)sulfonyl]-6-(3-fluoro-5-isobutoxy-phenyl)-2-[(4S)-2,2,4-trimethylpyrrolidin-1-yl]pyridine-3-carboxamide based)

T1 sequence (P13569 with tags, fused parts or gaps DEL508-508): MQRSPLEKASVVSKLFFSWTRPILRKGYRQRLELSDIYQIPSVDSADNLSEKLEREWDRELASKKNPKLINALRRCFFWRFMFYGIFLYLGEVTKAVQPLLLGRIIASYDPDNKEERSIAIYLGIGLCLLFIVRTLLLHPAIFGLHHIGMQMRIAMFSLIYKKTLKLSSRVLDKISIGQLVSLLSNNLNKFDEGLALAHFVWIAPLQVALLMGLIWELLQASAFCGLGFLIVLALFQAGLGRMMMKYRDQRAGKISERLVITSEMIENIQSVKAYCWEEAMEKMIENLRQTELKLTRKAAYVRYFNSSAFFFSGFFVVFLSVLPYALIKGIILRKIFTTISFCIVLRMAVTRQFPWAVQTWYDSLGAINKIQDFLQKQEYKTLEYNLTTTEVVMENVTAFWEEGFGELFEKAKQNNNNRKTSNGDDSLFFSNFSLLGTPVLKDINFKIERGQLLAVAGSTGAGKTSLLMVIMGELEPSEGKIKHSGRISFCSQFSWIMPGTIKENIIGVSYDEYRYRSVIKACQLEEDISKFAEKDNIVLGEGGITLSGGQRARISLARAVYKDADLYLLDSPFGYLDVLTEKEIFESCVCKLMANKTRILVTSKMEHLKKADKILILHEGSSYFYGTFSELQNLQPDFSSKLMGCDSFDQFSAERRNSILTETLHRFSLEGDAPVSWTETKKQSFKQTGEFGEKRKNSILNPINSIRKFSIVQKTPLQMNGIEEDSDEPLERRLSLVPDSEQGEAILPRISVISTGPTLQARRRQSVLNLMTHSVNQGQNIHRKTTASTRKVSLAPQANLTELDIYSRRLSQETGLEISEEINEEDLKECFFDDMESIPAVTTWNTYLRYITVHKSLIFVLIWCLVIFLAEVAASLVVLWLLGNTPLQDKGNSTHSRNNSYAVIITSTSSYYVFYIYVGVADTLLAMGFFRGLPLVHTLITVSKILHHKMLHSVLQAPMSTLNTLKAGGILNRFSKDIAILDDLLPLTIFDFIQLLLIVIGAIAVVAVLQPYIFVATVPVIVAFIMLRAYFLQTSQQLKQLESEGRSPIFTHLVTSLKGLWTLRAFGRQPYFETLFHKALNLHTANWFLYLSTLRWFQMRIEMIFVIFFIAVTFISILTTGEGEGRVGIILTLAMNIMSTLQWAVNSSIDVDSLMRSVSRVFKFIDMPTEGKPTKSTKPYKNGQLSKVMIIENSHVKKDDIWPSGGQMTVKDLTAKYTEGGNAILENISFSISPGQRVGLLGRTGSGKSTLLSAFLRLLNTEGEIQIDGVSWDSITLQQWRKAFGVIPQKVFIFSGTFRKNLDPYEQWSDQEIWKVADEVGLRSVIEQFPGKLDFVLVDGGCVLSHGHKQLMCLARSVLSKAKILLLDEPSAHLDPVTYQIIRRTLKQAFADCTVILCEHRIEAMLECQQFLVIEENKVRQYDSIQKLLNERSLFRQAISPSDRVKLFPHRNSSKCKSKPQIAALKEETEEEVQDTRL

Compound: Cc1cccc(C)c1-c1cc2nc(n1)NS(=O)(=O)c1cccc(c1)C(=O)N1C(c3cncc(N(C)C4CCC4)n3)CC[C@H](O2)[C@H]1CC(C)C (some centres unmarked)
ring closure, yield after HPLC ([1]; from Cc1cccc(C)c1-c1cc(Cl)nc(NS(=O)(=O)c2cccc(C(=O)N3C(c4cncc(N(C)C5CCC5)n4)CC[C@H](O)[C@H]3CC(C)C)c2)n1, snar bond, NaH, DMF, 21.5 mM, 24.0 h): 4% | ring closure, yield after HPLC ([1]; from Cc1cccc(C)c1-c1cc(O[C@H]2CCC(c3cncc(N(C)C4CCC4)n3)N[C@@H]2CC(C)C)nc(NS(=O)(=O)c2cccc(C(=O)O)c2)n1, amide bond, CDMT/NMM, DMF, 16.6 mM, 48.0 h, 2 steps): 31.6%

Compound: Cc1cccc(C)c1-c1cc2nc(n1)NS(=O)(=O)c1cccc(c1)C(=O)N1CC(CCC1c1ccccc1)O2 (centres unmarked)
ring closure, yield after HPLC ([1]; from Cc1cccc(C)c1-c1cc(OC2CCC(c3ccccc3)NC2)nc(NS(=O)(=O)c2cccc(C(=O)O)c2)n1, amide bond, HATU/DIEA, DMF, 156.0 mM, 25.0 °C, 0.083 h, 3 steps): 37% | ring closure, yield after HPLC ([1]; from Cc1cccc(C)c1-c1cc(OC2CCC(c3ccccc3)NC2)nc(NS(=O)(=O)c2cccc(C(=O)Oc3c(F)c(F)c(F)c(F)c3F)c2)n1, amide bond, thermal (OPfp ester), NMP, 36.0 mM, 130.0 °C, 1.0 h, 4 steps): 7%

Compound: Cc1cccc(C)c1-c1cc2nc(n1)NS(=O)(=O)c1cccc(c1)C(=O)N1CC(O2)C2CCCN(C)C2C1 (centres unmarked)
ring closure, yield after HPLC ([1]; from Cc1cccc(C)c1-c1cc(OC2CNCC3C2CCCN3C)nc(NS(=O)(=O)c2cccc(C(=O)O)c2)n1, amide bond, HATU/DIEA, DMF, 27.2 mM, 25.0 °C, 0.67 h): 10%

Compound: Cc1cccc(C)c1-c1cc2nc(n1)NS(=O)(=O)c1cccc(c1)C(=O)N1CC(O2)c2ccccc2C1CC(C)C (centres unmarked)
ring closure, yield after HPLC ([1]; from Cc1cccc(C)c1-c1cc(OC2CNC(CC(C)C)c3ccccc32)nc(NS(=O)(=O)c2cccc(C(=O)O)c2)n1, amide bond, HATU/DIEA, DMF, 256.0 mM, 1.0 h): 8%

Compound: Cc1cccc(C)c1-c1cc2nc(n1)NS(=O)(=O)c1cccc(c1)C(=O)N1CC3CCCN(C)C3C(C1)O2 (centres unmarked)
ring closure, yield after HPLC ([1]; from 3-[[4-(2,6-dimethylphenyl)-6-[(1-methyl-3,4,4a,5,6,7,8,8a-octahydro-2H-1,6-naphthyridin-8-yl)oxy]pyrimidin-2-yl]sulfamoyl]benzoic acid (Dihydrochloride salt), amide bond, HATU/DIEA, 25.0 °C): 19%

Compound: Cc1cccc(C)c1-c1cc2nc(n1)NS(=O)(=O)c1cccc(c1)C(=O)N1CCCC(O2)C1CC(C)C (centres unmarked)
ring closure, yield after HPLC ([1]; from Cc1cccc(C)c1-c1cc(Cl)nc(NS(=O)(=O)c2cccc(C(=O)N3CCCC(O)C3CC(C)C)c2)n1, snar bond, NaH, DMF, 17.2 mM, 25.0 °C, 40.0 h): 17% | ring closure, yield after HPLC ([1]; from Cc1cccc(C)c1-c1cc(Cl)nc(NS(=O)(=O)c2cccc(C(=O)N3CCCC(O)C3CC(C)C)c2)n1, snar bond, NaH, DMF, 18.3 mM, 25.0 °C, 24.0 h): 24%

Compound: Cc1cccc(C)c1-c1cc2nc(n1)NS(=O)(=O)c1cccc(c1)C(=O)N1CCOC[C@@H]1C(Cc1ccccc1)O2 (some centres unmarked)
ring closure, yield after HPLC ([1]; from Cc1cccc(C)c1-c1cc(OC(Cc2ccccc2)[C@H]2COCCN2)nc(NS(=O)(=O)c2cccc(C(=O)O)c2)n1, amide bond, HATU/DIEA, DMF, 61.0 mM, 25.0 °C, 1.5 h): 74%

Compound: Cc1cccc(C)c1-c1cc2nc(n1)NS(=O)(=O)c1cccc(c1)C(=O)N1Cc3cc(C(C)(C)C)ccc3[C@H](O2)[C@H]1CC(C)(C)C
ring closure, yield after HPLC ([1]; from Cc1cccc(C)c1-c1cc(O[C@H]2c3ccc(C(C)(C)C)cc3CN[C@@H]2CC(C)(C)C)nc(NS(=O)(=O)c2cccc(C(=O)O)c2)n1, amide bond, HATU/NaOtBu, DMF/THF, 0.25 h, 2 steps): 3%

Compound: Cc1cccc(C)c1-c1cc2nc(n1)NS(=O)(=O)c1cccc(c1)C(=O)N1Cc3cc(C(F)(F)F)ccc3[C@@H](O2)[C@H]1CC(C)C
ring closure, yield after HPLC ([1]; from Cc1cccc(C)c1-c1cc(O[C@@H]2c3ccc(C(F)(F)F)cc3CN[C@@H]2CC(C)C)nc(NS(=O)(=O)c2cccc(C(=O)O)c2)n1, amide bond, HATU/NaOtBu, DMF/THF, 0.25 h, 3 steps): 3%

Compound: Cc1cccc(C)c1-c1cc2nc(n1)NS(=O)(=O)c1cccc(c1)C(=O)N1Cc3cc(C(F)(F)F)ccc3[C@H](O2)[C@H]1CC(C)C
ring closure, yield after HPLC ([1]; from Cc1cccc(C)c1-c1cc(O[C@H]2c3ccc(C(F)(F)F)cc3CN[C@@H]2CC(C)C)nc(NS(=O)(=O)c2cccc(C(=O)O)c2)n1, amide bond, HATU/NaOtBu, DMF/THF, 0.25 h, 3 steps): 5%

Compound: Cc1cccc(C)c1-c1cc2nc(n1)NS(=O)(=O)c1cccc(c1)C(=O)N1Cc3ccncc3C(C1)O2 (centres unmarked)
ring closure, yield after HPLC ([1]; from Cc1cccc(C)c1-c1cc(OC2CNCc3ccncc32)nc(NS(=O)(=O)c2cccc(C(=O)O)c2)n1, amide bond, HATU/DIEA, DMF, 23.5 mM, 0.5 h, 2 steps): 3%

Compound: Cc1ccccc1-c1cc2nc(n1)NS(=O)(=O)c1cccc(c1)C(=O)N1Cc3ccccc3[C@H](O2)[C@H]1CC(C)C
ring closure, yield after HPLC ([1]; from Cc1ccccc1-c1cc(O[C@H]2c3ccccc3CN[C@@H]2CC(C)C)nc(NS(=O)(=O)c2cccc(C(=O)O)c2)n1, amide bond, HATU/DIEA, DMF, 190.0 mM, 0.5 h, 3 steps): 18%

Compound: 12-(2,6-dimethylphenyl)-23-(2-methylpropyl)-15-oxa-8λ^6-thia-1,9,11,25-tetraazapentacyclo[14.7.1.13,7.110,14.017,22]hexacosa-3(26),4,6,10(25),11,13,17,19,21-nonaene-2,8,8-trione, major diastereomer
ring closure, yield after HPLC ([1]; amide bond, HATU/DIEA, DMF, 115.0 mM): 53%

EC50 [2, 4]: < 1000 nM | Ent. B Max Activity (%) [2, 5]: +++ (+++ is >60%) | EC50 [3, 4]: < 1000 nM
Compound: Cc1cccc(C)c1-c1cc2nc(n1)NS(=O)(=O)c1cccc(c1)C(=O)N1Cc3ccccc3[C@H](C1)O2 (stereo in doubt) [Compound 319]
Ent. A Max Activity (%) [3, 6]: +++ (+++ is >60%)

EC50 [2, 4]: < 1000 nM | Ent. B Max Activity (%) [2, 5]: +++ (+++ is >60%) | EC50 [3, 4]: < 1000 nM
Compound: Cc1cccc(C)c1-c1cc2nc(n1)NS(=O)(=O)c1cccc(c1)C(=O)N1CCN(CCC(C)(C)C)C[C@H](C1)O2 [Compound 1, (16R)-18-(3,3-Dimethylbutyl)-12-(2,6-dimethylphenyl)-15-oxa-8λ^6-thia-1,9,11,18,22-pentaazatetracyclo[14.4.1.13,7.110,14]tricosa-3,5,7(23),10,12,14(22)-hexaene-2,8,8-trione]
Ent. A Max Activity (%) [3, 6]: +++ (+++ is >60%)

Ent. B Max Activity (%) ([2]; Enteroid Assay B): +++ (+++ is >600%) | EC50 ([2]; Enteroid Assay B): 1000 to 3000 nM | Ent. A Max Activity (%) ([3]; Enteroid Assay A): +++ (+++ is >600%) | EC50 ([3]; Enteroid Assay A): 1000 to 3000 nM
Compound: Cc1cccc(C)c1-c1cc2nc(n1)NS(=N)(=O)c1cccc(c1)C(=O)N1CCN(C(=O)OC(C)(C)C)CC(C1)O2 (centres unmarked) [Compound 239, tert-Butyl 12-(2,6-dimethylphenyl)-8-imino-2,8-dioxo-15-oxa-8λ^6-thia-1,9,11,18,22-pentaazatetracyclo[14.4.1.13,7.110,14]tricosa-3,5,7(23),10,12,14(22)-hexaene-18-carboxylate]

Ent. B Max Activity (%) ([2]; Enteroid Assay B): +++ (+++ is >600%) | EC50 ([2]; Enteroid Assay B): < 1000 nM | Ent. A Max Activity (%) ([3]; Enteroid Assay A): +++ (+++ is >600%) | EC50 ([3]; Enteroid Assay A): < 1000 nM
Compound: Cc1cccc(C)c1-c1cc2nc(n1)NS(=N)(=O)c1cccc(c1)C(=O)N1CCN(CCC(C)(C)C)CC(C1)O2 (centres unmarked) [Compound 243, 18-(3,3-Dimethylbutyl)-12-(2,6-dimethylphenyl)-8-imino-15-oxa-8λ^6-thia-1,9,11,18,22-pentaazatetracyclo[14.4.1.13,7.110,14]tricosa-3,5,7(23),10,12,14(22)-hexaene-2,8-dione]

Ent. B Max Activity (%) ([2]; Enteroid Assay B): +++ (+++ is >600%) | EC50 ([2]; Enteroid Assay B): < 1000 nM | Ent. A Max Activity (%) ([3]; Enteroid Assay A): ++ (++ is 30-60%) | EC50 ([3]; Enteroid Assay A): 1000 to 3000 nM
Compound: Cc1cccc(C)c1-c1cc2nc(n1)NS(=N)(=O)c1cccc(c1)C(=O)N1CCN(Cc3ccccc3)CC(C1)O2 (centres unmarked) [Compound 248]

EC50 [2, 4]: < 1000 nM | Ent. B Max Activity (%) [2, 5]: +++ (+++ is >60%) | EC50 [3, 4]: < 1000 nM
Compound: Cc1cccc(C)c1-c1cc2nc(n1)NS(=O)(=O)c1cccc(c1)C(=O)N1CCN(CCC(C)(C)C)C[C@@H]1CO2 [Compound 298]
Ent. A Max Activity (%) [3, 6]: +++ (+++ is >60%)

Ent. B Max Activity (%) ([2]; Enteroid Assay B): +++ (+++ is >600%) | EC50 ([2]; Enteroid Assay B): < 1000 nM | Ent. A Max Activity (%) ([3]; Enteroid Assay A): +++ (+++ is >600%) | EC50 ([3]; Enteroid Assay A): < 1000 nM
Compound: Cc1cccc(C)c1-c1cc2nc(n1)NS(=O)(=O)c1cncc(c1)C(=O)N1Cc3cc(C(C)(C)C)ccc3[C@H](O2)[C@H]1CC(C)C [Compound 331]
